Reference: patent US11242337B2, “Compounds useful for treating gastrointestinal tract disorders” (Ardelyx, Inc., priority 2017, dated 2022)
Like-named read-outs stand apart in the source and are kept apart here.

What was measured:
[1] = tested on: human ileum monolayer culture; test: Sustained inhibition of apical acid secretion in human organoid monolayer cell cultures (ileum); assay type: cell-based; conditions: Homo sapiens, 48 h; 1 μM apical, dosed day 6, apical media pH day 8, vs DMSO
Method in brief: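 Human ileum organoid-derived Transwell monolayers, differentiated with ENRA from day 3, received 1 μM compound apically on day 6 (DMSO vehicle, duplicate wells). Apical medium pH was measured by electrode on day 8 as a readout of sustained NHE3-mediated proton secretion inhibition.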

[2] = tested on: absorption of sodium from the intestinal lumen; test: Inhibition of intestinal sodium absorption in mice; assay type: in vivo; conditions: CD-1 mice, 15 mg/kg oral gavage twice daily; for response vs control in vivo at 15 mg/kg: Mus musculus, 72 h, day 3, normalized to dietary sodium intake
Method in brief: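 Male ~8-week CD-1 mice on chow with added 0.4% inorganic phosphorous, in metabolic cages after 3-day acclimation and 24-hr baseline collection. Urine sodium by ion chromatography, dried fecal sodium by MP-AES; day-3 24-hour excretion normalized to dietary sodium intake and expressed as % of vehicle mean; diarrhea and fecal fluid also recorded.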

Cc1cc(Cl)cc2c1C[C@H](N1CCNCC1)[C@H]2Oc1ccc(S(=O)(=O)NCCOCCOCCNC(=O)NCCCCNC(=O)NCCOCCOCCNS(=O)(=O)c2ccc(O[C@H]3c4cc(Cl)cc(C)c4C[C@@H]3N3CCNCC3)c(F)c2)cc1F [Example 36, 3-[2-(2-[2-[(4-[[(1S,2S)-6-Chloro-4-methyl-2-(piperazin-1-yl)-2,3-dihydro-1H-inden-1-yl]oxy]-3-fluorobenzene)sulfonamido]ethoxy]ethoxy)ethyl]-1-[4-([[2-(2-[2-[(4-[[(1S,2S)-6-chloro-4-methyl-2-(piperazin-1-yl)-2,3-dihydro-1H-inden-1-yl]oxy]-3-fluorobenzene)sulfonamido]ethoxy]ethoxy)ethyl]carbamoyl]amino)butyl]urea; bis(trifluoroacetic acid)]
inhibition at 1 µM [1]: > 70%
Fecal fluid content (Δ from vehicle) ([2]; day 3, change from vehicle group mean): B (5-10)
response vs control in vivo at 15 mg/kg ([2]; read-out: Fecal Na Excretion (% of vehicle)): 150 to 200%
response vs control in vivo at 15 mg/kg ([2]; read-out: Urinary Na Excretion (% of vehicle)): 50 to 70%
